Experiments:
BV2-CD33wT cells = assay: Aβ42 uptake by ELISA in BV2 cells stably expressing CD33; assay type: cell-based
Experimental: (§1) Naive BV2 microglial cells were treated with DMSO (control) or cromolyn (500 μM) for 16 hours. Afterwards, the cells were incubated with fluoresceraly-labeled A1342 (red) and DMSO or cromolyn for 2 hours. After incubation, the cells were labeled with a plasma membrane dye (PM, green) and imaged. BV2 microglial cells or BV2 cells stably expressing CD33 (BV2-CD33wT) were treated with DMSO or different concentrations of cromolyn for 16 hours. Then, cells were incubated with soluble untagged Aβ42 and DMSO or cromolyn for 2 hours and collected for ELBA analysis.

BV2 microglial cells = assay: Aβ42 uptake by ELISA and confocal microscopy in naive BV2 microglial cells; assay type: cell-based
Experimental: as §1

TgSOD1 mice [1] = assay: Meso Scale Discovery multi-spot cytokine assay, plasma of TgSOD1 mice; assay type: in vivo; settings: 6.3 mg/kg i.p.
Experimental: (§2) Cromolyn. sodium was provide by AZ Therapies and dissolved in PBS. 100 mM solution was used for in vivo experiments. Dulbecco's PBS was used to dilute the solution for intraperitoneal injections for a final dose of 6.3 mg/kg.
(§3) 149 male and female age- and litter-matched transgenic TgSOD1^G93A and wild-type WtSOD1^G93A mice were used with the following breakdown: Females (19 WtSOD1-Vehicle, 17 WtSOD1-Cromolyn, 19 TgSOD1-Vehicle, and 17 TgSOD1-Cromolyn) and Males (18 WtSOD1-Vehicle, 21 WtSOD1-Cromolyn, 21 TgSOD1-Vehicle, 17 TgSOD1-Cromolyn). The mice received once daily injections of either vehicle or cromolyn sodium (6.3 mg/kg, […] i.p.) 5 days per week starting at P60 until euthanasia.
(§4) B6SJL-Tg (SOD1 G93A)1Gur/J transgenic male mice were obtained from Jackson Laboratory and bred with C57BL/6 female mice to obtain wild-type WtSOD1 and mutant transgenic TgSOD1^G93A-expressing mice. To determine mouse genotype, RNA extraction and complimentary DNA (cDNA) synthesis was performed from tail biopsies acquired at postnatal day 28-40 followed by quantitative real-time PCR (qRT-PCR) using primers for the mutant G93A SOD1 gene (GGGAAGCTGTTGTCCCA AG and […])(SEQ ID NO: 1 and SEQ ID NO: 2, respectively). Both age- and litter-matched WtSOD1 and TgSOD1 male. and female mice were used for all studies as described below.
Spinal cord frozen tissue was homogenized in ice-cold RIPA buffer (Thermo Fisher Scientific, #8990) supplemented with protease inhibitor cocktail (Thermo Fisher Scientific, #78430). Samples were centrifuged at 45,000 g for 30 minutes at 4° C. using an Optima TL ultracentrifuge and a TLA 120.2 rotor (Beckman Coulter). Expression levels of the cytokines were assessed in the supernatants derived from spinal cord tissue or in the plasma, using an electrocheiniluminescence-based multi-array method and MESO Quickplex SQ 120 system (MSD, Rockville, Md., USA). The 96-well V-FLEX Proinflammatory Mouse 1 Kit (Meso Scale Discovery, #K15048D) was used to measure simultaneously IL-1β, IL-2, IL-5, IL-6, IL-10, and TNFα, following the manufacturer's instructions. Briefly, samples were diluted in the calibrator and added to the plate coated with an array of cytokine capture antibodies. Samples were incubated. in the plate for 2 hours with shaking at room temperature, followed by washes with the wash buffer provided in the kit. The detection antibody solution was added to each well and the plate was incubated for 2 hours. The plate was washed with the wash buffer and the 2× Read Buffer T was added. The signal was immediately measured on a MESO QuickIlex SQ 120 instrument and was analyzed using the DISCOVERY WORKBENCH 4.0 software (Meso Scale Diagnostics, LLC., Rockville, Md., USA). Protein concentrations in the supernatants or the plasma samples were measured using the Pierce BCA protein assay kit (Thermo Scientific). Values in the graphs represent levels of cytokines normalized to the corresponding protein concentrations.
Data are presented as median values. Box plots are used for graphical representation of population data with the central line representing the median, the edges representing the interquartile ranges, and the whiskers representing 10-90th percentiles. Data are also represented as medians±interquartile ranges or percent values. Sample sizes are included in the figure legends. Comparisons for unrelated samples were performed using a two-way ANOVA followed by Tukey's or Sidak's multiple comparison's test or a one-way ANOVA test followed by Tukey's multiple comparison post-tests at a significance level (a) of 0.05. For p<0.05 and >0.00001, exact P values (two-tailed) are reported.
Additionally, levels of L-1β, IL-2, IL-5, IL-6, IL-10, and TNFα were assessed in the plasma of a subset of mice (Females: 13 WtSOD1-Vehicle, 15 WtSOD1-Cromolyn, 6 TgSOD1-Vehicle, and 6 TgSOD1-Cromolyn; and Males: 14 WtSOD1-Vehicle, 10 WtSOD1-Cromolyn, 6 TgSOD1-Vehicle, 3 TgSOD1-Cromolyn).

TgSOD1 mice [2] = assay: Meso Scale Discovery multi-spot cytokine assay, spinal cord lysates of TgSOD1 mice; assay type: in vivo; settings: TgSOD1-Cromolyn vs TgSOD1-Vehicle; cromolyn sodium 6.3 mg/kg i.p. once daily, 5 days per week from P60; p=0.0273
Experimental: as §2, §3
as §4, with “below. […]” for “below.”

[3] = 16 hours pretreatment, then 2 hours with Aβ42, vs vehicle (DMSO), ELISA
[4] = different concentrations of cromolyn

## O=C(O)c1cc(=O)c2c(OCC(O)COc3cccc4oc(C(=O)O)cc(=O)c34)cccc2o1 [cromolyn, cromolyn sodium]
BV2-CD33wT cells; [3]
  internalized Aβ42 in BV2-CD33wT cells: increased levels of internalized Aβ42
BV2-CD33wT cells; [4]
  dose dependence of Aβ42 uptake modulation, BV2-CD33wT cells: dose-dependent effect
BV2 microglial cells; [3]
  Aβ42 uptake in naive BV2 microglial cells: increased Aβ42 uptake
BV2 microglial cells; [4]
  dose dependence of Aβ42 uptake modulation, naive BV2 cells: dose-dependent effect
TgSOD1 mice [1]; TgSOD1-Cromolyn vs TgSOD1-Vehicle, p=0.0095
  IL-10 level in plasma: significantly decreased
TgSOD1 mice [1]; TgSOD1-Cromolyn vs TgSOD1-Vehicle, p=0.0211
  IL-2 level in plasma: significantly decreased
TgSOD1 mice [1]; TgSOD1-Cromolyn vs TgSOD1-Vehicle, p=0.0273
  IL-6 level in plasma: significantly decreased
TgSOD1 mice [1]; TgSOD1-Cromolyn vs TgSOD1-Vehicle, p=0.110
  TNFα level in plasma: trend towards a decrease
TgSOD1 mice [1]; between groups
  IL-1β level in plasma: no statistically significant difference
  IL-5 level in plasma: no statistically significant difference
TgSOD1 mice [2]
  TNFα level in spinal cord: significant decrease

— patent US20220218652A1, “METHODS OF TREATING CYTOKINE RELEASE SYNDROME” (The General Hospital Corporation, priority 2018, published 2022)
